Patent US20250152616A1, “COMPOSITIONS FOR AND METHODS OF TREATING, PREVENTING, AND/OR MITIGATING PAIN” (Duke University, priority 2022, published 2025)
Blank lines part the entries; values can stand above or below the compound they belong to.

How the values were obtained:
[1] = target: T1, ADORA1 (Mus musculus, UniProt Q60612); experiment: Fura-2 calcium imaging of NGF-exposed, adenosine-treated DRG neurons with ADORA1 inhibitor; format: cell-based; details: NGF-exposed DRG treated with adenosine 5 μM plus DPCPX 100 nM; capsaicin 100 nM; vehicle DMSO
T1 construct: endogenous in cells; host or cells: primary dissociated mouse L3-L4 DRG neurons
T1 sequence (Q60612 1-326): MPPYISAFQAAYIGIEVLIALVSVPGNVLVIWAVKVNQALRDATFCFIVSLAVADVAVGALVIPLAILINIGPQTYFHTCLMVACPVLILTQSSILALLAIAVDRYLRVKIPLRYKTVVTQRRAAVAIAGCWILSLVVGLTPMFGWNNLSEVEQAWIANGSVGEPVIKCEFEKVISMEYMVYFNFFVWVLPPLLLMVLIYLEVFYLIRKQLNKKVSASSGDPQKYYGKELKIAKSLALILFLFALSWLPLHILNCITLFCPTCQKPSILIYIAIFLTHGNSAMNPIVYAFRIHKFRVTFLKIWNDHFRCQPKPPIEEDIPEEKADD
From the text: DRG were isolated from mice using a modified version of the previously described protocol (Perner C, et al. (2021) STAR Protoc. 2:100333). Briefly, mice were euthanized and dosed in 70% ethanol to prevent fur contamination. Mice were positioned prone, and an incision was made along the spine from the neck to the base of the tail. Under a dissecting microscope, the surrounding soft tissue of the spinal column was removed from the dorsal side by Friedman-Pearson Rongeurs (Fine Science Tools, Foster City, CA, Cat #16021-14) from the mid thoracic region to the lumbosacral joint. The vertebral bone surrounding the DRG was gently crushed and removed with rongeurs exposing the spinal cord. The DRG were carefully extracted near the foramen between the vertebral levels. L3 and L4 DRG were collected for analyses. […] For cell culture experiments, collected DRG were digested in digestion solution comprised of collagenase type II (Worthington, Lakewood, NJ, Cat #LS004176) and dispase (1.5 mg/mL each) dissolved in DMEM/F12. DRG were agitated in a digestion solution on an orbital shaker at 60 rpm and 37° C. for 20 minutes and repeated thrice with fresh digestion solution. […]

[2] = target: T2, ADORA2B (Mus musculus, UniProt Q60614); experiment: RT-qPCR of osteogenic genes in BM-MSCs with ADORA2B inhibitor; format: cell-based; details: BM-MSCs with adenosine 30 μg/mL plus PSB 603, 14 days, vs vehicle DMSO
T2 construct: endogenous in cells; host or cells: primary mouse bone marrow mesenchymal stromal cells (BM-MSCs), passage 1-2
T2 sequence (Q60614 1-332): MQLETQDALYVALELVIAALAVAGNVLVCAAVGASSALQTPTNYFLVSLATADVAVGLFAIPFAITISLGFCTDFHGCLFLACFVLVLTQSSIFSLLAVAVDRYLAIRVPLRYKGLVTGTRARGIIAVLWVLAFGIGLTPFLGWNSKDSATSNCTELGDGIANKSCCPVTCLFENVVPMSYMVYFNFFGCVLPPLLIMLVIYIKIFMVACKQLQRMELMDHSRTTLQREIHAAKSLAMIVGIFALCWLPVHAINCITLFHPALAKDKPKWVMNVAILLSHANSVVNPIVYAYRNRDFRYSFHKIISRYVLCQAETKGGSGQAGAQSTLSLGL
Procedure: MSCs were isolated as previously described with some modifications (Shih Y B, et al. (2019) Sci Adv. 5:eaax1387). Briefly, the femurs, tibiae, vertebrae of mice were harvested, crushed with pestle and mortar in harvest buffer (1% v/v FBS in PBS) to release bone marrow (BM) tissue, filtered through a 40-μm cell strainer, and centrifuged at 200 rcf. Cells were seeded in a 24-well plate at a cell density of 1 million cells/cm^2 in growth media (GM) containing α-MEM, FBS (10% v/v, ThermoFisher, Cat #16000044), penicillin/streptomycin (10000 U/mL; 1% v/v) and cultured in humidified incubator (37° C., 5% CO2). The medium was replaced after 3 days and further cultured for 6 days before passage. […]
Cells, DRG, or bone/marrow tissues were analyzed for gene expression by quantitative real-time polymerase chain reaction (RT-qPCR). […] Quantitative PCR was performed with iTaq Universal SYBR green reagent (Bio-Rad, Cat #1725124) with denaturation at 95° C. for 30 sec for one cycle, and amplification (denaturation+annealing/extension) at 95° C. for 5 sec and 60° C. for 30 sec for 40 cycles on a polymerase chain reaction (PCR) cycler (Bio-Rad, CFX96 Touch). […]
The expression level of each target gene was normalized to the housekeeping gene and to their respective controls and presented as fold change expressed as 2^−ΔΔCt values. […]

[3] = system: TRPV1; experiment: Immunofluorescence staining of TRPV1 in cultured DRG neurons; format: cell-based, mouse; details: NGF 200 ng/mL, 1 day incubation, DRG neurons from unfractured mice
Procedure: To culture DRG neurons, culture media composed of Neurobasal-A medium (ThermoFisher, Cat #10888022), 2% B27 supplement (ThermoFisher, Cat #17504044), 1% glutamax (ThermoFisher, Cat #35050061), and penicillin/streptomycin (10000 U/mL, 1% v/v, ThermoFisher, Cat #15140122) was used. Cells were treated with or without NGF (200 ng/mL) for 24 hr prior to immunofluorescence imaging. Cells were exposed to NGF (200 ng/mL) for 24 hr (long-term) for calcium and FluoVolt imaging. Cells were cultured on custom-made glass surface with silicone wells. Briefly, cover slides (#1 thickness) were cleaned by agitating in 0.5 M NaOH for 30 minutes followed by subsequent rinsing in dH2O followed by 100% ethanol and air-dried. Wells were produced in cured polydimethylsiloxane (PDMS, Sylgard 184, Ellsworth Adhesives, Germantown, WI) with a 8-mm biopsy punch and bonding to the cover slides. […]
Sections were heated for antigen retrieval in citrate buffer (MilliporeSigma, Cat #C9999) for 20 min, permeabilized in 0.1% Triton X-100 in PBS for 10 min, followed by blocking for 1 hr in blocking solution comprised of 3% BSA, 0.26 M glycine, 5% normal donkey serum in Tris buffered saline (TBS) at room temperature. […] Fluorescence intensity was quantified by ImageJ software and presented in arbitrary units.

[4] = system: dissociated DRG neurons; experiment: FluoVolt membrane potential imaging of dissociated DRG neurons; format: cell-based, mouse; details: NGF exposure 1 day; capsaicin stimulation
From the text: (§1) DRG were isolated from mice using a modified version of the previously described protocol (Perner C, et al. (2021) STAR Protoc. 2:100333). Briefly, mice were euthanized and dosed in 70% ethanol to prevent fur contamination. Mice were positioned prone, and an incision was made along the spine from the neck to the base of the tail. Under a dissecting microscope, the surrounding soft tissue of the spinal column was removed from the dorsal side by Friedman-Pearson Rongeurs (Fine Science Tools, Foster City, CA, Cat #16021-14) from the mid thoracic region to the lumbosacral joint. The vertebral bone surrounding the DRG was gently crushed and removed with rongeurs exposing the spinal cord. The DRG were carefully extracted near the foramen between the vertebral levels. L3 and L4 DRG were collected for analyses. Dissected DRG were placed directly into ice-cold DMEM-F12 medium (ThermoFisher, Cat #11320033) for in vitro culture, Trizol (ThermoFisher, Cat #15596018) for PCR analyses, or 4% PFA for histology. For cell culture experiments, collected DRG were digested in digestion solution comprised of collagenase type II (Worthington, Lakewood, NJ, Cat #LS004176) and dispase (1.5 mg/mL each) dissolved in DMEM/F12. […]
DRG neuron potential changes were evaluated with FluoVolt, a voltage sensitive indicator dye (ThermoFisher, Cat #F10488). […]

[5] = system: dissociated DRG neurons; experiment: Fura-2 calcium imaging of dissociated DRG neurons stimulated with capsaicin; format: cell-based, mouse; details: NGF 200 ng/mL 24 hr vs no NGF; capsaicin 100 nM
From the text: as §1, with “DMEM/F12. DRG were agitated in a digestion solution on an orbital shaker at 60 rpm and 37° C. for 20 minutes and repeated thrice with fresh digestion solution. Next, the digestion solution was replaced with trypsin-EDTA (0.025%) in DMEM/F12 and incubated for an additional 15 min to disrupt the remaining cell-to-cell adhesions. The solution was then replaced with DMEM/F12 and FBS (1:3) to neutralize trypsin. DRG were triturated to create a cell suspension and gently layered onto 15% bovine serum albumin (BSA) solution without mixing and centrifuged for 6 min at 280 g with minimal acceleration and no deceleration to separate non-neuronal cells and debris (Owen D E, et al. (2012) Methods Mol Biol. 846:179-187).” for “DMEM/F12.”
Intracellular cytosolic Ca^2+ was evaluated by Fura-2 loaded DRG neurons (Khomula E V, et al. (2019) J Neurosci. 39:7061-7073). […]

average and peak fluorescence intensity vs vehicle control lacking DPCPX [1]: increase
Compound: CCCn1c(=O)c2[nH]c(C3CCCC3)nc2n(CCC)c1=O [DPCPX, 8-Cyclopentyl-1,3-dipropylxanthine]

adenosine mediated upregulation of osteogenic markers (Runx2, Sp7, Ibsp) [2]: attenuated
Compound: CCCn1c(=O)[nH]c2nc(-c3ccc(S(=O)(=O)N4CCN(c5ccc(Cl)cc5)CC4)cc3)[nH]c2c1=O [PSB 603]

TRPV1 receptor expression in TUBB3-positive neurons [3]: significantly increased
Compound: NGF: nerve growth factor, used as model molecule for in vitro sensitization of DRG neurons
membrane potential of DRG neurons (FluoVolt) [4]: increased
functional responses of DRG neurons to capsaicin (Fura-2 intensity) [5]: increased
